Experiments:
androgen receptor [1] = target: T1, androgen receptor (Rattus norvegicus, UniProt P15207); experiment: COS-7 Whole-Cell Androgen Receptor Binding Assay, Adenovirus Transduction; details: COS Binding; for % Inhibition: concentration of 3000 nM unless otherwise noted
T1 sequence (P15207 1-902): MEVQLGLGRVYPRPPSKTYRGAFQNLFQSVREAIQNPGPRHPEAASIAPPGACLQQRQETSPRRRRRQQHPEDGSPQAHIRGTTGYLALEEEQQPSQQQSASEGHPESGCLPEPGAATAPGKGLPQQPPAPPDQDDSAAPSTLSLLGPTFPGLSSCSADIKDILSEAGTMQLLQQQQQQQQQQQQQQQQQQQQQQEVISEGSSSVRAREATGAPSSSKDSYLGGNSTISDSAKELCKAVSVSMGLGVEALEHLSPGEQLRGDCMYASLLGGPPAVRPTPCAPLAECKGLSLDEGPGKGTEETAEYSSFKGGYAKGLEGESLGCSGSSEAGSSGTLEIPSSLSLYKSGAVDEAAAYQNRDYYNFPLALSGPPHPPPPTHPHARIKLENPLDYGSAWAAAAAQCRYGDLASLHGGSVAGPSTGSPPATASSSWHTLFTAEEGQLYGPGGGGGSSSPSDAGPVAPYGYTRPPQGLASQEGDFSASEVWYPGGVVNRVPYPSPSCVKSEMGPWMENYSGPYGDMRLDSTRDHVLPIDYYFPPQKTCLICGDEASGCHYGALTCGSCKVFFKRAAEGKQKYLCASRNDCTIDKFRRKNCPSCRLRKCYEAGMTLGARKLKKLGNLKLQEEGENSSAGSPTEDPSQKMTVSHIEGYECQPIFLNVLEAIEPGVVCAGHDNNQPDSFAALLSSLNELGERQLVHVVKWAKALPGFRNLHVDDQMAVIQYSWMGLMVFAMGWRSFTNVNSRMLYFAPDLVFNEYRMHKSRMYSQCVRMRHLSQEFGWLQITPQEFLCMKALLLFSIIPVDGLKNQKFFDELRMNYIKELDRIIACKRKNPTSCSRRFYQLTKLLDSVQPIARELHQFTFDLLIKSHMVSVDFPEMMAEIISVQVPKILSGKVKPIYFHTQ
Method: COS-7 cells were plated in 96-well plates at 20,000 cells per well, in a solution of DMEM/F12 (GIBCO) containing 10% (v/v) charcoal-treated fetal bovine serum (Hyclone) and lacking phenol red. The cells were then incubated overnight at 37° C. in 5% (v/v) humidified CO2.
Test compound solutions were prepared by diluting the test compound in 100% (v/v) DMSO, if necessary.
Next, 1 mL of DMEM/F12 lacking phenol red was pipetted into each of the wells of a 2-mL 96-well assay block. […] The wells were carefully mixed by pipette.
In a 15 mL or 50 mL sterile centrifuge tube, a dilution in DMEM/F12 of the adenovirus AdEasy+rAR at a moi of 1:50 per well was prepared.
The medium was removed from the 96-well plates by inversion and the plates dried very briefly, inverted, on a sterile towel. As soon as possible after medium removal, 40 μL of the diluted test compound was added to each well, in duplicate. […] The plates were then incubated for 48 hours at 37° C. in 5% (v/v) humidified CO2.
The medium was removed from the above incubated plates by inversion and dried. Each well was then washed with 0.35 mL of 1×PBS. The PBS was then removed from the plates by inversion and the plates dried.
To each well was then added 50 μL of 0.5% (v/v) Triton X-100 (Sigma) in 1×PBS and the plates placed on a rotary shaker for 5 min. The contents of each well were then transferred to an OptiPlate-96 (Packard) scintillation plate. To each well was then added 0.2 mL of Microscint-20 (Packard) and the wells counted on a TopCount (Packard).
Percent inhibition was determined by testing dilutions of the test compound (usually duplicates of 10 μM) in the binding assay. Counts per well were measured and percents of inhibition determined. […] Counts per well were measured and IC50s determined by linear regression.

androgen receptor [2] = target: T1, androgen receptor; experiment: L929 Androgen Receptor Functional Assay, Adenovirus Transduction; assay type: cell-based; design: expressed in transfected cells; host or cells: L929 cells transduced with adenovirus AdEasy+rAR; details: concentration of 3000 nM; for % Activity: L929 agonist testing; for % Inhibition: L929 antagonist testing with R1881
Method: L929 cells were plated in 96-well plates at 20,000 cells per well, in DMEM/F12 (GIBCO) containing 10% (v/v) charcoal-treated fetal bovine serum (Hyclone) and lacking phenol red. The plates were then incubated overnight at 37° C. in 5% (v/v) humidified CO2.
Test compound dilutions were prepared in 100% (v/v) DMSO, if necessary. Each dilution was made to 1250× the final desired assay concentration.
First, 2 mL of DMEM/F12 lacking phenol red was pipetted into the wells of a 2-mL 96-well assay block. Next, 4 μL of the 1250× test compound dilutions were pipetted into each well of the assay block. The mixtures within the well were then carefully mixed by pipette.
In a 15 mL or 50 mL sterile centrifuge tube, a 2.5 nM (2.5×) dilution of R1881 (methyl-trienolone) in DMEM/F12 lacking phenol red was prepared.
In a second 15 mL or 50 mL centrifuge tube a solution containing an equal volume of DMEM to the first and an equal volume of 100% (v/v) DMSO to the volume of R1881 used in the first tube was prepared.
In a 15 mL or 50 mL sterile centrifuge tube, a dilution in DMEM/F12 of the adenovirus AdEasy+rAR at an moi of 1:500 per well was prepared.
The medium was removed from the 96-well plates by inversion and dried, inverted, very briefly. As soon as possible after medium removal, 40 μL of the diluted unlabeled test compound was added to each well, in duplicate. To each well designated for antagonist testing was added 40 μL of the 2.5 nM R1881 dilution to the wells for antagonist testing. To each well designated for agonist testing was added 40 μL of the DMSO dilution. Then 20 μL of the diluted adenovirus were added to all wells. The plates were incubated for 48 hours at 37° C. in 5% (v/v) humidified CO2.
To each well was added 100 μL of Steady-Glo luciferase assay substrate (Promega) and the plates were placed on a rotary shaker for 1 min. The plates were then incubated at room temperature in the dark for one hour. The contents of each well were then transferred to a white microtiter plate (Packard) and read on a Luminoskan Ascent (Thermo Lab Systems).
L929 AR percent activity was determined by testing dilutions of the test compound using a concentration of 3000 nM unless otherwise noted. L929 percent inhibition was determined by testing dilutions of the test compound using a concentration of 3000 nM. […] Luciferase activity per well were measured and EC50s and IC50s determined by linear regression.

androgen receptor [3] = target: T1, androgen receptor; experiment: Androgen Receptor Binding Using Rat Ventral Prostate Cytosol; design: from tissue; host or cells: ventral prostate cytosol of castrated male Sprague Dawley or Wistar rats; details: Rat Cytosol; Concentration 3000 nM
Method: Rat Prostate Cytosol Preparation:
Male Sprague Dawley or Wistar rats (Charles River, 200-300 g) were used for each preparation. The day before preparing the cytosol, the rats were castrated using standard surgical procedures.
The rats were euthanized by carbon dioxide asphyxiation. The rat prostates were quickly removed and placed on ice in pre-chilled, pre-weighed 50 mL plastic tubes. No more than five prostates were placed into one tube. The tubes were then weighed and the prostate tissue wet weights calculated.
To the chilled prostate tissue was then added […] of chilled homogenization buffer. The homogenization buffer was freshly prepared by mixing 10 mM Tris.HCl, pH 7.4, 1 mM sodium molybdate, 1.5 mM EDTA, 1 mM dithiothreitol, 10% (v/v) glycerol and 1% protease inhibitor cocktail (Sigma P 8340).
The prostate tissue was homogenized in a cold room using a pre-chilled Polytron PT3000 homogenizer (Brinkmann). Homogenization was performed at a speed setting of 20, three times for 10 sec bursts. The tubes containing the prostate tissue was kept on ice while homogenizing. The homogenate was allowed to rest on ice for 20 sec between bursts.
The homogenate was then placed into pre-chilled 3 mL polycarbonate ultracentrifuge tubes and centrifuged in the TLA-100 rotor of a TL-100 ultracentrifuge for 12 min at 100,000 rpm at 4° C. The resulting supernatant was stored in 1 mL aliquots at −80° C. until needed.
Binding to the androgen receptor was determined according to the protocol described in Example 86 using the above prepared rat cytosol.
% Inhibition was determined by testing dilutions of the test compound (usually duplicates of 10 μM) in the binding assay. Counts per well were measured and percents of inhibition determined. […] Counts per well were measured and IC50s determined by linear regression.

[4] = test system: castrated male Sprague Dawley rats; experiment: Ventral Prostate and Seminal Vesicle Weight In Vivo Assay; design: species or system rat; key: active: non weight adjusted prostate weight was ≦40 mg or the % Inhibition prostate weight, body weight adjusted was ≧40% @ 2 mg/day dosage; inactive: they did not meet the specified criteria defined above; details: immature castrated male rats, once daily for five days, with testosterone propionate 2 mg/kg subcutaneously
Method: Immature (approximately 50 g) castrated male Sprague Dawley rats (Charles River) were treated once daily for five days with test compound (usually given orally at 40 mg/kg in a volume of 0.3 mL, in 30% cyclodextrin or 0.5% methylcellulose vehicle) and with testosterone propionate (given subcutaneously by injection at the nape of the neck at 2 mg/kg, in a volume of 0.1 mL in sesame oil). On the sixth day, the rats were euthanized by asphyxiation in carbon dioxide. Ventral prostates and seminal vesicles were removed and their wet weights determined.
A test compound was said to be “active” if the non weight adjusted prostate weight was ≦40 mg or the % Inhibition prostate weight, body weight adjusted was ≧40% @ 2 mg/day dosage.

SMILES | % Inhibition (androgen receptor [1]) | % Activity (androgen receptor [2]) | active / inactive: inhibition of testosterone-enhanced prostate weight [4] | other results
C[S+]([O-])CCC(C)(O)c1cc2cc([N+](=O)[O-])c(C(F)(F)F)cc2[nH]1 (mixture of isomers) [compound 50] | 7% | 2% |  | 
CC(O)(C[S+]([O-])Cc1ccccc1)c1cc2cc([N+](=O)[O-])c(C(F)(F)F)cc2[nH]1 (mixture of isomers) [compound 161] | 20% | 2% |  | % Inhibition (androgen receptor [3]): 39%
CC(O)(CSc1ccc(N)cc1)c1cc2cc(Cl)c(C(F)(F)F)cc2n1S(C)(=O)=O (racemic) [compound 125] | 30% | −5% |  | 
COc1ccc(S(=O)(=O)CC(C)(O)c2cc3cc(Cl)c(C(F)(F)F)cc3[nH]2)cc1 (racemic) [compound 129] | 10% | −5% |  | % Inhibition (androgen receptor [2]): −8%; % Inhibition (androgen receptor [3]): 39.5%
COc1ccc(SCC(C)(O)c2cc3cc(Cl)c(C(F)(F)F)cc3n2S(C)(=O)=O)cc1 (racemic) [compound 130] | −8% | −5% |  | % Inhibition (androgen receptor [3]): 32.55%
CCSCC(C)(O)c1cc2cc(Cl)ccc2n1S(C)(=O)=O (racemic) [compound 154] | 50% | 2% |  | % Inhibition (androgen receptor [2]): 7%
CCSCC(C)(O)c1cc2cc(F)c(Cl)cc2[nH]1 (racemic) [compound 206] | −40% | 5% | active | 
CCSCC(C)(O)c1[nH]c2cc(C(F)(F)F)c([N+](=O)[O-])cc2c1C (racemic) [compound 221] |  | −1% | inactive | 
CC(O)(CSCC(F)(F)F)c1cc2cc([N+](=O)[O-])c(C(F)(F)F)cc2[nH]1 (single isomer, unassigned) [compound 202] | 50% | 1% |  | 
N#Cc1cc2cc(C3(O)CCSC3)[nH]c2cc1C(F)(F)F (stereo not drawn) [Compound #15] |  |  | inactive | 
OC1(c2cc3cc(Cl)c(C(F)(F)F)cc3[nH]2)CCSC1 (stereo not drawn) [compound 14] |  |  | inactive | 
O=[N+]([O-])c1cc2cc(C3(O)CCSC3)[nH]c2cc1C(F)(F)F (stereo not drawn) [compound 18] |  |  | inactive | 
CSCC(C)(O)c1cc2cc([N+](=O)[O-])c(C(F)(F)F)cc2[nH]1 (stereo not drawn) [compound 139] |  |  | active | 
CCSCC(C)(O)c1[nH]c2cc(C(F)(F)F)c(Br)cc2c1C (stereo not drawn) [compound 220] |  |  |  | IC50 (androgen receptor [1]): 34 nM
CCSCC(C)(O)c1cc2cc(C#N)c(Cl)cc2[nH]1 (stereo not drawn) [compound 225] |  |  | active | 
